The target of one test is T1, human renin (Homo sapiens, UniProt P00797).
T1 sequence (P00797 67-406): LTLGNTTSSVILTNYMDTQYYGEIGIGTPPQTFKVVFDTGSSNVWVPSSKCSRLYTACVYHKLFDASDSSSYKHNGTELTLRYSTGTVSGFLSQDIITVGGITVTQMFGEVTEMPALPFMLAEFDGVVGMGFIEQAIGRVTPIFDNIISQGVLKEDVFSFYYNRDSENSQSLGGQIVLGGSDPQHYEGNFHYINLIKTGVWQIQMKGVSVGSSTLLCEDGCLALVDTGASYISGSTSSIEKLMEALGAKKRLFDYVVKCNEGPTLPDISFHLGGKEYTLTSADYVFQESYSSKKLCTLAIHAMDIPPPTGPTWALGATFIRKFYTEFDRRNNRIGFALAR
The test can be described thus: Human renin-sheep renin substrate reaction system in vitro (angiotensin I by radioimmunoassay). Type of test: biochemical. To be noted: pH 7.4, 37° C., 15 minutes, read-out: IC50 (molar concentration which produced 50% inhibition). The protocol:
Human renin-sheep renin substrate reaction system in vitro To a mixture containing 200 μl of a 125 mM pyrophosphate buffer (ph 7.4), 25 μl of a 20 mM aqueous solution of […] as an angiotensin converting enzyme inhibitor, 50 μl of semipurified sheep renin substrate (4400 ng angiotensin I/ml) 50 μl of dimethyl sulfoxide solution of a dipeptide of the present invention and 150 μl of deionized water was added 25 μl of purified human renin (20-30 ng angiotensin I/hr). The mixture was incubated for 15 minutes on a water bath at 37° C., and the reaction mixture was allowed to stand for 5 minutes on a water bath at 100° C. to stop the reaction. After cooling, 200 μl of the solution were taken up and the amount of angiotensin I produced by the addition of renin was determined by radioimmunoassay. The inhibitory effect was calculated by the following equation. [formula] As a control, the same procedure as above was carried out by using 50 μl of dimethyl sulfoxide alone in place of the 50 μl of dimethyl sulfoxide solution containing an amino acid derivative of the present invention. The molar concentration which produced 50% inhibition (IC50) was calculated from the inhibition value obtained, and the results are shown below.

The test system of the next test is marmoset. Kind of test: Hypotensive effect in marmoset (furosemide-induced high renin state, i.v. injection). Conditions: 2.5 mg/kg i.v., conscious male marmoset, furosemide pretreated. In kind it is in vivo, common marmoset. The protocol: Hypotensive effect in marmoset
The experiment was carried out by using common marmoset as described in K. G. Hofbauer et al., Clinical and Experimental Hypertension-Theory and Practice, Vol. A5, No. 7 & 8 (1983), pages 1237-1247.
Furosemide was orally administered three times to common marmoset at 15 mg per kilogram per day every other day to create a high renin state. Blood pressure of consious marmoset was measured 2 days after the last administration of furosemide.
Measurement of blood pressure
Male common marmoset weighing 325 g was lightly anesthetized by ketamine hydrochloride (Ketalar, produced by Parke Davis, 20 mg/kg i.m.), and their carotid artery and vein exposed.. Catheters being filled with a heparin solution was subcutaneously inserted into the carotid artery and vein from the dorsum. After suturing of the opened part, the marmosets were placed on a heated mat. After complete recovery from the anesthesia, an amino acid derivative of the present invention (2.5 mg/kg) was intravenously injected through the venous catheter.
The arterial catheter was connected to a pressure transducer and blood pressure was recorded on the polygraph.

For the molecule `CNC(=O)C(O)[C@H](CC(C)C)NC(=O)[C@H](Cc1cnc[nH]1)NC(=O)C(CC(=O)NCCc1ccccc1)Cc1cccc2ccccc12` (mixture of isomers) [(2RS,3S)-3-{N-[(+)-2-(1-naphthylmethyl)-3-(phenethylcarbamoyl)propionyl]-L-histidyl}-amino-2-hydroxy-5-methylhexanoylmethylamide], the IC50 at human renin was found to be 700 nM.
For the molecule `COC(=O)C(O)[C@H](CC(C)C)NC(=O)[C@H](Cc1c[nH]cn1)NC(=O)C(CC(=O)NCCc1ccccc1)Cc1cccc2ccccc12` (mixture of isomers) [methyl (2RS, 3S)-3-{N-[(+)-2-(1-naphthylmethyl)-3-(phenethylcarbamoyl)propionyl]-L-histidyl}amino-2-hydroxy-5-methylhexanoate], the Diastolic blood pressure in the test with marmoset (1 min after injection (control 72)) came to 56 mm Hg; in the test with marmoset (3 min after injection (control 72)), 61 mm Hg; with marmoset (5 min after injection (control 72)) it was 62 mm Hg; in the test with marmoset (10 min after injection (control 72)), 70 mm Hg; with marmoset (15 min after injection (control 72)), 72 mm Hg. Besides, the Systolic blood pressure in the test on marmoset (1 min after injection (control 103)) was determined as 85 mm Hg; with marmoset (3 min after injection (control 103)) it was 91 mm Hg; in the test with marmoset (5 min after injection (control 103)), 92 mm Hg; with marmoset (10 min after injection (control 103)), 102 mm Hg; in the test on marmoset (15 min after injection (control 103)), 103 mm Hg. For the same molecule, the IC50 on human renin turned out to be 49 nM.
For `CC(C)C[C@H](NC(=O)[C@H](Cc1c[nH]cn1)NC(=O)C(CC(=O)NCCc1ccccc1)Cc1cccc2ccccc12)C(O)C(=O)OCc1ccccc1` (single isomer, unassigned), at human renin, the IC50 was 42 nM.
Still for that read-out and setting: under `CC(C)CCOC(=O)C(O)[C@H](CC(C)C)NC(=O)[C@H](Cc1c[nH]cn1)NC(=O)C(CC(=O)NCCc1ccccc1)Cc1cccc2ccccc12` (single isomer, unassigned) stands 61 nM; under `COC(=O)[C@H](O)[C@H](CC(C)C)NC(=O)[C@H](Cc1cnc[nH]1)NC(=O)C(CC(=O)NCCc1ccccc1)Cc1cccc2ccccc12` (single isomer, unassigned), 31 nM.
Take `COC(=O)[C@@H](O)[C@H](CC(C)C)NC(=O)[C@H](Cc1cnc[nH]1)NC(=O)C(CC(=O)NCCc1ccccc1)Cc1cccc2ccccc12` (single isomer, unassigned): the IC50 at human renin worked out at 1300 nM.
The same measure, in the same setting: for `CC(C)C[C@H](NC(=O)[C@H](Cc1cnc[nH]1)NC(=O)C(CC(=O)NCCc1ccccc1)Cc1cccc2ccccc12)C(O)C(=O)NCc1ccccc1` (single isomer, unassigned) the value was 100 nM; for `CC(C)CCNC(=O)C(O)[C@H](CC(C)C)NC(=O)[C@H](Cc1cnc[nH]1)NC(=O)C(CC(=O)NCCc1ccccc1)Cc1cccc2ccccc12` (single isomer, unassigned), 250 nM; for `CC(C)C[C@H](NC(=O)[C@H](Cc1cnc[nH]1)NC(=O)C(CC(=O)NCCc1ccccc1)Cc1cccc2ccccc12)C(O)C(=O)N(C)C` (single isomer, unassigned), 2800 nM.
In the case of `CNC(=O)C(O)[C@H](CC(C)C)NC(=O)[C@H](Cc1cnc[nH]1)NC(=O)C(CC(=O)NCCc1ccccc1)Cc1cccc2ccccc12` (single isomer, unassigned) [listing 1 of 2 here], the IC50 at human renin amounted to 4500 nM.
Still for that read-out and setting: under `CNC(=O)C(O)[C@H](CC(C)C)NC(=O)[C@H](Cc1cnc[nH]1)NC(=O)C(CC(=O)NCCc1ccccc1)Cc1cccc2ccccc12` (single isomer, unassigned) [listing 2 of 2 here] stands 390 nM; under `CC(C)C[C@H](NC(=O)[C@H](Cc1c[nH]cn1)NC(=O)C(CC(=O)NCCc1ccccc1)Cc1cccc2ccccc12)[C@@H](O)CCO` (single isomer, unassigned), 5900 nM.
Still for that read-out and setting: for `COCC(O)[C@H](CC(C)C)NC(=O)[C@H](Cc1cnc[nH]1)NC(=O)C(CC(=O)NCCc1ccccc1)Cc1cccc2ccccc12` (single isomer, unassigned) [(2RS, 3S)-3-{N-(+)-2-(1-Naphthylmethyl)-3-(phenethylcarbamoyl)propionyl]-L-histidyl}amino-2-hydroxy-5-methylhexyl methyl ether] the value was 790 nM; for `CC(C)CCOCC(O)[C@H](CC(C)C)NC(=O)[C@H](Cc1c[nH]cn1)NC(=O)C(CC(=O)NCCc1ccccc1)Cc1cccc2ccccc12` (single isomer, unassigned) [(2RS, 3S)-3-{N-[(+)-2-(1-Naphthylmethyl)-3-(phenethylcarbamoyl)propionyl]-L-histidyl}amino-2-hydroxy-5-methylhexyl isoamyl ether], 280 nM; for `CC(C)C[C@H](NC(=O)[C@H](Cc1c[nH]cn1)NC(=O)C(CC(=O)NCCc1ccccc1)Cc1cccc2ccccc12)C(O)CO` (single isomer, unassigned) [(2RS, 3S)-3-{N-[(+)-2-(1-naphthylmethyl)-3-(phenethylcarbamoyl)propionyl]-L-histidyl}amino-2-hydroxy-5-methylhexanol], 590 nM.
Same read-out and setting: for `CC(C)C[C@H](NC(=O)[C@H](Cc1cnc[nH]1)NC(=O)C(CC(=O)NCCc1ccccc1)Cc1cccc2ccccc12)C(O)COCc1ccccc1` (single isomer, unassigned) [(2RS, 3S)-3-{N-[(+)-2-(1-naphthylmethyl)-3-phenethylcarbamoyl)propionyl]-L-histidyl}amino-2-hydroxy-5-methylhexyl benzyl ether] the value was 470 nM; for `CC(C)C[C@H](NC(=O)[C@H](Cc1cnc[nH]1)NC(=O)C(CC(=O)NCCc1ccccc1)Cc1cccc2ccccc12)C(O)CNCc1ccccc1` (single isomer, unassigned) [(2RS, 3S)-N-Benzyl-3-{N-[(+)-2-(1-naphthylmethyl)-3-(phenethylcarbamoyl)propiobnyl]-L-histidyl}amino-2-hydroxyl-5-methylhexylamine], 150 nM; for `CC(C)CCNCC(O)[C@H](CC(C)C)NC(=O)[C@H](Cc1cnc[nH]1)NC(=O)C(CC(=O)NCCc1ccccc1)Cc1cccc2ccccc12` (single isomer, unassigned) [(2RS, 3S)-N-Isoamyl-3-{N-[(+)-2-(1-naphthylmethyl)-3-(phenethylcarbamoyl)propionyl]-L-histidyl}-amino-2-hydroxy-5-methylhexylamine], 350 nM.
For `COC(=O)C[C@H](O)[C@H](CC(C)C)NC(=O)[C@H](Cc1cnc[nH]1)NC(=O)C(CC(=O)NCCc1ccccc1)Cc1cccc2ccccc12` (single isomer, unassigned) [Methyl N-[(+)-2-(1-naphthylmethyl)-3-(phenethylcarbamoyl)propionyl]-L-histidylstatinate], the IC50 on human renin was determined as 310 nM.
For `CC(C)CCNC(=O)C[C@H](O)[C@H](CC(C)C)NC(=O)[C@H](Cc1cnc[nH]1)NC(=O)C(CC(=O)NCCc1ccccc1)Cc1cccc2ccccc12` (single isomer, unassigned) [N-[(+)-2-(1-Naphthylmethyl)-3-(phenethylcarbamoyl)propionyl]-L-histidylstatylisoamylamide], the IC50 at human renin amounted to 72 nM.
Still for that read-out and setting: under `CNC(=O)C[C@H](O)[C@H](CC(C)C)NC(=O)[C@H](Cc1cnc[nH]1)NC(=O)C(CC(=O)NCCc1ccccc1)Cc1cccc2ccccc12` (single isomer, unassigned) [N-[(+)-2-(1-Naphthylmethyl)-3-(phenethylcarbamoyl)propionyl]-L-histidylstatylmethylamide] stands 740 nM.
